Results from patent US20170072005A1, “COMBINATIONS OF NMDAR MODULATING COMPOUNDS” (NORTHWESTERN UNIVERSITY, priority 2014, published 2017).
Entries after “also recorded” stand apart in the source; their conditions may differ. Peptide text beside a SMILES is read from it.

Columns and labels:
Format in all cases: in vivo
[1] = tested on: adult male C57BL/6 male mice; test: Novel object recognition test (NOR), discrimination index
Description: The discrimination index is calculated using the following formula: (time spent exploring novel object−time spent exploring familiar object)/(total time spent in exploring both the novel and familiar objects).
Novel Object recognition Test (“NOR”) testing in mice was adapted from (Hashimoto K, Fujita Y, Shimizu E, Iyo M (2005). Phencyclidine-induced cognitive deficits in mice are improved by subsequent subchronic administration of clozapine, but not haloperidol. European journal of pharmacology 519(1-2): 114-117). See also, e.g., Rajagopal, et al., Current Pharmaceutical Design 2014, 20, 1. The NOR box is an open box made out of Plexiglas (52 cm L; 52 cm W; 31 cm H). The dimensions of the box we used for mice was identical to the one used for rats. The box was positioned approximately 30 cm above the floor. The walls of the box have white background, as opposed to the black background in the rat NOR studies. […] Three days prior to testing, mice were habituated to the empty NOR arena for an hour. The NOR test in mice is similar to that previously employed to study rat NOR except that the acquisition and retention trials were 10 min in duration, followed by an intertrial interval (ITI) of 24 hours during which the mice were returned to their home cages, whereas in rats, the acquisition and retention trials were three min in duration separated by a one min ITI (Horiguchi M, Meltzer HY (2012). The role of 5-HT1A receptors in phencyclidine (PCP)-induced novel object recognition (NOR) deficit in rats. Psychopharmacology 221(2): 205-215). We compared 3, 5, and 10 min times for acquisition and retention trial explorations and found 10 minutes to be optimal for reliable data collection. Both trials were recorded for blind scoring later on.
All data are expressed as mean±S.E.M. Exploration data were analysed by a two-way analysis of variance (ANOVA). This detected the main effect of drug treatment, the main effect of task, and the interaction between drug treatment and object exploration. When a significant effect was found, further analysis by a post hoc Student's t-test was performed to compare the times spent exploring the novel and familiar object. The primary endpoint was the discrimination index (DI). The DI (novel-familiar/novel+familiar) data were analysed using one-way ANOVA followed by the Bonferroni test when a significant effect was detected by the ANOVA.

somatosensory cortex = test: Attenuation in somatosensory cortex with GLYX-13 pre-treatment followed by ketamine (FIG. 4)
[2] = tested on: 2-3 month old male Sprague Dawley rats; test: Stereotypy behaviour (circling and head weaving) in the open field
Description: Vehicle treated animals received saline vehicle injections instead of GLYX-13 and ketamine injections. Animals were placed into the open field immediately after the final dose, and behaviour was analysed for 20 min. N=8-12.

For `CC(O)C(N)C(=O)N1CCCC1C(=O)N1CCCC1C(=O)NC(C(N)=O)C(C)O` (stereo not shown) [GLYX-13] (H-TPPT-NH2; configuration not given here), the “Discrimination index (DI) in novel object recognition, reversal of acute ketamine-induced impairment” value ([1]; GLYX-13 3 mg/kg iv 30 min before ketamine 10 mg/kg sc, tested 20 min later, p<0.01 vs ketamine group) was “reverses acute ketamine (10 mg/kg sc) induced impairment in novel object recognition; also recorded: significant reversal in DI compared with ketamine group”, the “Discrimination index (DI) in novel object recognition, reversal of chronic ketamine-induced impairment” value ([1]; mice pre-treated with ketamine 30 mg/kg IP twice daily for 7 days, GLYX-13 1 mg/kg IV 1 hr before testing, p<0.001 vs ketamine group) was “reverses chronic ketamine-induced impairment in novel object recognition; also recorded: significant reversal in DI compared with ketamine group” and the “Discrimination index (DI) in novel object recognition, reversal of chronic PCP-induced impairment” value ([1]; mice pretreated with PCP 10 mg/kg IP twice daily for 7 days, GLYX-13 1 mg/kg IV 1 hr before testing, p<0.001 vs PCP group) was “reverses chronic phencyclidine-induced impairment in novel object recognition; also recorded: significant reversal in DI compared with PCP group”. The “Attenuation in somatosensory cortex” value (somatosensory cortex; pre-treatment with 3 mpk GLYX-13 followed by ketamine) was “significant attenuation”, the “Attenuation in somatosensory cortex” value (somatosensory cortex; pre-treatment with 30 mpk GLYX-13 followed by ketamine) was “significant attenuation” and the “Number of stereotypy behaviour (circling and head weaving), inhibition of ketamine-induced stereotypy” value ([2]; GLYX-13 3 mg/kg iv 30 min before ketamine 10 mg/kg iv, behaviour analysed for 20 min) was “inhibits ketamine (10 mg/kg iv) induced stereotypy”.
For `c1ccc(C2(N3CCCCC3)CCCCC2)cc1` [PCP, phencyclidine, reference compound], the “Discrimination index (DI) in novel object recognition, effect of chronic PCP” value ([1]; PCP 10 mg/kg IP twice daily for 7 days, then saline vehicle 1 hr before testing, p<0.001 vs vehicle group) was “significant decrease in DI compared with the vehicle group”.
With `CNC1(c2ccccc2Cl)CCCCC1=O` (stereo not shown) [ketamine, reference compound] the “Discrimination index (DI) in novel object recognition, effect of acute ketamine” value ([1]; ketamine 10 mg/kg sc, tested 20 min later, p<0.0001 vs vehicle group) was “significant decrease in DI compared with the vehicle group”, the “Discrimination index (DI) in novel object recognition, effect of chronic ketamine” value ([1]; ketamine 30 mg/kg IP twice daily for 7 days, then saline vehicle 1 hr before testing, p<0.001 vs vehicle group) was “significant decrease in DI compared with the vehicle group” and the “Number of stereotypy behaviour (circling and head weaving), effect of ketamine” value ([2]; ketamine 10 mg/kg iv, open field, 20 min) was “induced stereotypy”.
